We go through two compounds from article PMC9181982, “Biphenyl Ether Analogs Containing Pomalidomide as Small-Molecule Inhibitors of the Programmed Cell Death-1/Programmed Cell Death-Ligand 1 Interaction” (Molecules, 2022).

In test [1] the target is T1, PD-1/PD-L1 complex (Homo sapiens, UniProt Q9NZQ7).
T1 construct: purchased Cis-Bio
In words: HTRF (homogeneous time-resolved fluorescence) PD-1/PD-L1 binding assay (Cis-Bio). Particulars: 5 nM hPD-L1, 50 nM hPD-1. As to the method:
To validate the activity toward PD-L1 of our compounds, we carried out an HTRF (homogeneous time-resolved fluorescence) experiment at two concentrations of the ligand (5 µM and 0.5 µM) (Table 1).
HTRF was carried out using a certified Cis-Bio assay according to the manufacturer’s guidelines. The experiments were carried out at 5 nM of h-L1 and 50 nM of hPD-1 in the final formulation at the 20 µL final volume in the well. To determine the half maximal inhibitory concentrations (IC50) of the tested compounds, the measurements were carried out on two individual dilution series unless stated otherwise. After mixing all the components according to the Cis-Bio protocol, the plate was left for 2 h incubation at room temperature followed by the TR-FRET measurement on a Tecan Spark 20M. […] The collected data was background-subtracted from the negative control, normalized on the positive control, averaged, and fitted with the normalized Hill’s equation to determine the IC50 value using Mathematica 12 (Princeton, NJ, USA).
(In general: TR-FRET usually uses a lanthanide donor and a delayed reading to cut background.)

Test [2] relates to PD-1/PD-L1 blockade, Jurkat effector cells / CHO/TCRAct/PD-L1 cells. In words: Immune checkpoint blockade (ICB) assay (Promega): Jurkat ECs co-cultured with CHO/TCRAct/PD-L1 cells, NFAT luciferase readout. It counts as cell-based, human. As to the method: In order to explore the bioactivity of the synthesized compounds, a well-recognized immune checkpoint blockade (ICB) assay was performed. In the assay, artificial T cells, the Jurkat effector cells (Jurkat ECs), i.e., the Jurkat T cells overexpressing PD-1 and luciferase-coding gene under the control of the TCR-inducible NFAT response element, are contacted with artificial antigen-presenting CHO/TCRAct/PD-L1 cells, as illustrated in [31]. The latter is the CHO cells equipped with the TCR activator molecule, which delivers activation of Jurkat ECs, and also the PD-L1 protein, which provides a negative signal towards the activation of Jurkat ECs. Upon the blockade of the PD-1/PD-L1 interaction, activation of Jurkat ECs is increased, as we have shown before for several classes of therapeutic antibodies and small molecules.
The human PD-L1-expressing CHO-K1 cells overexpressing TCR activator (CHO/TCRAct/PD-L1) cells and Jurkat ECs T cells overexpressing PD-1 and carrying a luciferase reporter gene under the control of the Nuclear Factor of Activated T cells Response Element (NFAT-RE) were obtained from Promega and cultured in an RPMI-1640 medium (Biowest, Nuaillé, France) supplemented with 10% fetal bovine serum (FBS, Biowest, Nuaillé, France) and […] L-glutamine (Biowest, Nuaillé, France). G418 (250 µg/mL, InvivoGen, San Diego, CA, USA) and Hygromycin B Gold (50 µg/mL, InvivoGen, San Diego, CA, USA) were also added to the culture medium as selection antibiotics. CAKI 2, LNCap, PC-3, and MDA-MB-231 cells were purchased from the European Collection of Authenticated Cell Cultures (ECACC) and cultured according to the provided protocol.
For the analysis of biological activity of the analyzed compounds, an immune checkpoint blockade (ICB) assay was performed. For this, the culture of Jurkat effector cells (Jurkat-ECs) and […] was carried out. The assay was performed according to the protocol described in our previous works. All the experiments were performed three times as independent experiments.
Figure 2 Bioactivity of the indicated compounds. (A,B) The activity was monitored with a cell-based immune checkpoint blockade (ICB) assay. Jurkat ECs were contacted with pre-seeded CHO/TCRAct/PD-L1 cells in the presence of the indicated concentrations of the compounds (A) or durvalumab (B) as a positive control. The cells were co-cultured for 6 h and the luminescence signal was measured following the addition of the Bio-Glo substrate. The graphs show fold induction calculated versus either DMSO-treated (for small molecules) or untreated (for durvalumab) control (ctrl) cells. The results are mean ± SD from three independent experiments. […] (C) Analysis of the expression of PD-L1 in four human cancer cell lines compared to PD-L1-overexpressing CHO/TCRAct/PD-L1 cells. (D) Analysis of the expression of PD-L1 in MDA-MB-231 cells treated with either 4 or 5 compounds for 6 or 24 h.

In test [3] the target is T2, PD-L1 protein (Homo sapiens, UniProt Q9NZQ7).
T2 construct: PD-L1 gene (amino acids 18–239); made in house; host or cells: E. coli BL21
In words: 1H NMR binding analysis, PD-L1 protein titrated with ligand. The following applies: for Binding to PD-L1 by 1H NMR titration: PBS pH 7.4, 300 K, protein–ligand ratios up to 1:10. On the procedure: Apart from the HTRF assay, we performed the NMR [33, 34] binding analysis by recording the ^1H spectrum of the PD-L1 protein titrated with compound 4 (Figure 1).
The E. coli strain BL21 was transformed with a pET-21b plasmid carrying the PD-L1 gene (amino acids 18–239). The bacteria were cultured in LB at 37 °C until OD600nm of 0, 6 when the recombinant protein production was induced with 1 mM IPTG. The protein production continued overnight. The inclusion bodies were collected by centrifugation, washed twice with 50 mM Tris HCl, pH 8.0, containing 200 mM NaCl, 10 mM EDTA, 10 mM 2-mercaptoethanol, and 0.5% Triton X-100, followed by a single wash with the same buffer but with no Triton X-100. The washed inclusion bodies were resuspended overnight in 50 mM Tris HCl, pH 8.0, 6 M GuHCl, 200 mM NaCl, and 10 mM 2-mercaptoethanol and clarified with centrifugation. Refolding of PD-L1 was performed by dropwise dilution into 0.1 M Tris HCl, pH 8.0, containing 1 M L-arginine hydrochloride, 0.25 mM oxidized glutathione, and 0.25 mM reduced glutathione. The refolded protein was dialyzed three times against 10 mM Tris HCl, pH 8.0, containing 20 mM NaCl and purified by size exclusion chromatography using Superdex 75 and a dialysis buffer. The quality of the refolded protein was evaluated by SDS-PAGE and NMR.
NMR spectra were recorded in PBS, pH 7.4, containing 10% (v/v) of D2O added to the samples to provide the lock signal. Water suppression was carried out using the WATERGATE sequence. All the spectra were recorded at 300 K using a Bruker Avance 600 MHz spectrometer with the Cryo-Platform. The NMR spectrum was recorded at three different ligand/protein ratios from 0 to 10. The samples were prepared by adding small amounts of a 50 mM ligand stock solution in DMSO to the protein solution (0.20 mL) of the PD-L1 fragment at a concentration of 0.14 mM. The acquisition parameters for each spectrum were as follows: size of FID32768, number of scans: 32. The spectra were visualized using TopSpin 4.0.2. (Bruker, Billerica, MA, USA)

SMILES strings stand for the structures.

T2 sequence (Q9NZQ7 18-239): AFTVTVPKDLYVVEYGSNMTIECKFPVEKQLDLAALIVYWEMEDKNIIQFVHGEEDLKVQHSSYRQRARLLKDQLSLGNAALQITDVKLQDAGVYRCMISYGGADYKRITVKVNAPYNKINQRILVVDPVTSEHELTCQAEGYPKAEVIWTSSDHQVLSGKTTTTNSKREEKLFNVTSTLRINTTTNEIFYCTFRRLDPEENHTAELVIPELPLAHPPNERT
T1 sequence (Q9NZQ7 19-238 limits assumed, one chain of several): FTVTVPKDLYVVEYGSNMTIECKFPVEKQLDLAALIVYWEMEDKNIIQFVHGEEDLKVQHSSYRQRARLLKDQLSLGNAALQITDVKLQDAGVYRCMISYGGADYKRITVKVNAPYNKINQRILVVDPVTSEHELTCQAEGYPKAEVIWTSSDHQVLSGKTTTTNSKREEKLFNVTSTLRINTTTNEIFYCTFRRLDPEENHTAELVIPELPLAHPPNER

For the compound `Nc1cccc2c1C(=O)N(C1CCC(=O)NC1=O)C2=O` (stereo not drawn) [pomalidomide], the “HTRF: Percentage of the Dissociated PD-1/PD-L1 Complex, 0.5 µM Ligand Conc.” value in test [1] (0.5 µM ligand) was 11.4%. In addition, the “HTRF: Percentage of the Dissociated PD-1/PD-L1 Complex, 5 µM Ligand Conc.” value in test [1] (5 µM ligand) was 20.1%. Further, in test [2] (6 h co-culture, fold induction vs control), the “Activation of Jurkat ECs in the ICB assay” value was “did not increase the activation of Jurkat ECs”. Besides, the “Binding to PD-L1 by 1H NMR titration” value in test [3] is “lack of interaction”.
For the compound `Cc1c(COc2cc(OCc3cccc(C#N)c3)c(C(NCCCNc3cccc4c3C(=O)N(C3CCC(=O)NC3=O)C4=O)c3nnnn3C(C)(C)C)cc2Cl)cccc1-c1ccc2c(c1)OCCO2` (stereo not drawn) [compound 6, 3-((2-((1-(tert-butyl)-1H-tetrazol-5-yl)((3-((2-(2,6-dioxopiperidin-3-yl)-1,3-dioxoisoindolin-4-yl)amino)propyl)amino)methyl)-4-chloro-5-((3-(2,3-dihydrobenzo[b][1,4]dioxin-6-yl)-2-methylbenzyl)oxy)phenoxy)methyl)benzonitrile], the inhibition at 0.5 µM in test [1] (0.5 µM ligand, read-out: HTRF: Percentage of the Dissociated PD-1/PD-L1 Complex, 0.5 µM Ligand Conc.) turned out to be 13.8%. Besides, the inhibition at 5 µM in test [1] (5 µM ligand, read-out: HTRF: Percentage of the Dissociated PD-1/PD-L1 Complex, 5 µM Ligand Conc.) was found to be 25.9%. Moreover, in test [2] (cell-based PD-1/PD-L1 blockade bioassay), the “Promega Assay (active / not active)” value was “Not active”. Moreover, the “Protein precipitation during NMR titration” value in test [3] (1H NMR titration, compound 6 at protein–ligand ratio 1:10) was “massive protein precipitation”. In addition, the “Binding to PD-L1 by 1H NMR titration” value in test [3] is “does not present changes in the PD-L1 NMR protein spectra”.
